Measured values reported in publication PMC8469531, “Design, Synthesis, and Biochemical Evaluation of New Triazole Derivatives as Aurora-A Kinase Inhibitors” (Molecules, 2021).
Read-outs that look alike come from different tables or passages of the source. Blank lines part the entries; values can stand above or below the compound they belong to.

How the values were obtained:
[1] = molecular target: T1, Aurora-A kinase (Homo sapiens, UniProt O14965); assay: ChEF-based assay (PhosphoSens) of Aurora-A kinase activity
T1 sequence (O14965 1-403): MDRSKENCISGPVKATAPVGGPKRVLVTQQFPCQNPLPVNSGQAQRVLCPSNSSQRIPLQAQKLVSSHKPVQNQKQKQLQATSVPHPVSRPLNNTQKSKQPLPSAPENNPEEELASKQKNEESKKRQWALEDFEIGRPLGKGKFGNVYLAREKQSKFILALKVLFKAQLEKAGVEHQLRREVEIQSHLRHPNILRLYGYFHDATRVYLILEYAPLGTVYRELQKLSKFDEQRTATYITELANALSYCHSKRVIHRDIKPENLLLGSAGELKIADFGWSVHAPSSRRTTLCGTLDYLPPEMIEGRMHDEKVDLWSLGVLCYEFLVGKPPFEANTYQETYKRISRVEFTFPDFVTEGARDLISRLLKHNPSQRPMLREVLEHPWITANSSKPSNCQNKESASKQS
Experimental: The reaction wells were mixed, and the relative fluorescence unit (RFU) data were collected every 3 min for 30 min at 30 °C. The used λEx/Em of the chelated Mg^2+ with the Sox was 360/485 nm.

[2] = test system: A375 melanoma human tumor xenograft; set-up: method as in PMID 16204078; settings: A375 melanoma human tumor xenograft model; cited from earlier work
[3] = test system: DLBC lymphoma cell lines; set-up: method as in PMID 31850205; settings: cited from earlier work
[4] = test system: various cancerous cell lines; set-up: method as in PMID 16204078; settings: cited from earlier work

Compound: 4-((5-amino-1-((3,5-bis(trifluoromethyl)phenyl)sulfonyl)-1H-1,2,4-triazol-3-yl)amino)benzenesulfonamide [Compound 1d]
IC50 ([1]; Mean ± SEM of 3 independent experiments, 1.25 nM Aurora-A kinase, 15 µM ATP, 10 µM CSox-peptide substrate): 1780 ± 340 nM

Compound: Nc1nc(Nc2ccc(S(N)(=O)=O)cc2)nn1C(=O)c1c(F)cccc1F [JNJ-7706621]
tumor size [2]: significantly reduced the tumor size | reversal of resistance to CD37-targeted radioimmunotherapy [3]: promoted the reversal of resistance | growth inhibition of normal cells relative to cancerous cell lines ([4]; normal cell growth): several folds less potent at inhibiting normal cell growth | antiproliferative activity ([4]; various cancerous cell lines): potent antiproliferative activity

Compound: Nc1nc(Nc2ccc(S(N)(=O)=O)cc2)nn1S(=O)(=O)c1c(F)cccc1F [Compound 1b, 4-((5-amino-1-((2,6-difluorophenyl)sulfonyl)-1H-1,2,4-triazol-3-yl)amino)benzenesulfonamide]
IC50 [1]: 210 ± 20 nM

Results, then the compound that gave them:

melting point: 229 to 231 °C | IC50 [1]: 130 ± 60 nM
Compound: Nc1nc(Nc2ccc(S(N)(=O)=O)cc2)nn1S(=O)(=O)c1ccccc1 [Compound 1a, 4-((5-amino-1-(phenylsulfonyl)-1H-1,2,4-triazol-3-yl)amino)benzenesulfonamide]

IC50 [1]: 230 ± 20 nM
Compound: Cc1ccc(S(=O)(=O)n2nc(Nc3ccc(S(N)(=O)=O)cc3)nc2N)cc1 [Compound 1c, 4-((5-amino-1-tosyl-1H-1,2,4-triazol-3-yl)amino)benzenesulfonamide]
